Reference: US7485659B2, “Anticancer compositions, and methods of making and using the same” (Faustus Forschungs CIE, Translational Cancer Research GmbH, priority 2001, dated 2009)

Key:
[1] = system: human line of tumor cells CH1 (ovarian carcinoma); test: MTT assay, continuous 96 hour exposure, CH1; format: cell-based
Description: (§1) The cytotoxic effects of KP 1019 and combinations of KP 1339 and indazol in different molar ratios (administered as solution in the conventional cell culture medium MEM, supplemented with 10% fetal bovine serum, without the addition of organic solvents or dissolving agents) have been comparatively investigated on the human line of tumor cells SW480 (colon carcinoma) and CH1 (ovarian carcinoma) in the MTT assay under the application of a continuous 96 hour exposure to the active substance.

[2] = Water-solubility; format: physicochemical
[3] = system: human line of tumor cells SW480 (colon carcinoma); test: MTT assay, continuous 96 hour exposure, SW480; format: cell-based
Description: as §1

[4] = system: stem cells of human solid tumors and continuous human tumor cell lines; test: In vitro antiproliferative experiments on stem cells of human solid tumors (nude mice xenografts) and continuous human tumor cell lines; format: cell-based; conditions: stem cells of human solid tumors bred as nude mice xenografts

Structure (SMILES)	tumor inhibiting (cytotoxic) activity compared with KP 1019 ([1]; MEM + 10% fetal bovine serum)	water-solubility (in words) [2]	water-solubility relative to KP 1019 ([2]; compared with KP 1019)	tumor inhibiting (cytotoxic) activity compared with KP 1019 ([3]; MEM + 10% fetal bovine serum)	antiproliferative effectiveness in vitro compared with KP 1019 [4]	concentration at which a cytotoxic effect is exhibited [1]	concentration at which a cytotoxic effect is exhibited [3]
[Cl][Ru-]([Cl])([Cl])[Cl].[Na+].c1ccc2[nH]ncc2c1.c1ccc2[nH]ncc2c1 [KP 1339, sodium trans-[RuCl4(ind)2]]	three to four times less effective than KP 1019	easily water-soluble	more than thirty times higher than KP 1019	three to four times less effective than KP 1019	clearly weaker antiproliferative effectiveness than KP 1019		
c1ccc2[nH]ncc2c1 [Indazol, indazol, reference compound]						> 1000 µM	> 1000 µM
